Settings: 25% aqueous ammonia at room temperature

Structure (SMILES): NCCS(=O)(=O)O [Taurine, 2-aminoethanesulfonic acid]
- solubility in 25% aqueous ammonia: 36 g in 100 g
